From patent US20240115546A1, “AGENT FOR PREVENTING OR AMELIORATING PRURITUS” (KAO CORPORATION, priority 2021, published 2024)

Columns and labels:
[1] = system: AEW model mice (C57BL/6J); assay: Scratching behavior in AEW model mice given C3a receptor antagonist; type: in vivo, mouse; details: 200 μL subcutaneous, Compound 1 0.5 mg/mL, Compound 2 0.05 mg/mL, once daily for 8 days; measured for 3 hours after last administration; vs solvent alone; FIG. 8
Description: The animals used were male C57BL/6J mice.
Preparation of AEW model: The back of the neck was shaved, and absorbent cotton soaked with a 1:1 (v/v) mixture of acetone and diethyl ether was applied and allowed to stand for 15 seconds. Immediately thereafter, absorbent cotton soaked with water was applied for 30 seconds. This treatment was repeated twice/day (morning and evening) for 7 days.
(§1) Compound 1 or Compound 2, whose C3a receptor antagonism was confirmed in Example 4 above, was used as a C3a receptor antagonist. Compound 1 or Compound 2 was dissolved in saline containing 20% polyethylene glycol 400, of which 200 μL was administered subcutaneously to the back of the neck. The control group was administered with the same amount of only the above solvent. The concentration of the C3a receptor antagonist solution was set at 0.5 mg/mL for Compound 1 and 0.05 mg/mL for Compound 2. Sample administration started after the first AEW treatment and was performed at a frequency of once daily for 8 days.
Sixteen hours after the last AEW treatment, the scratching behavior was measured for 3 hours after the last administration of the sample. MicroAct (Neuroscience) was used to measure the scratching behavior.

C3a receptor = target: T1, C3a receptor (Homo sapiens, UniProt Q16581); assay: Ca2+-flux assay for C3a receptor antagonism in transfected HEK293 cells; type: cell-based; details: antagonist 10 nM, mouse TLQP-21 1 μM; HEK293 transfected with C3a receptor and GNA16; Fluo-4; vs control; FIG. 6
T1 sequence (Q16581 1-482): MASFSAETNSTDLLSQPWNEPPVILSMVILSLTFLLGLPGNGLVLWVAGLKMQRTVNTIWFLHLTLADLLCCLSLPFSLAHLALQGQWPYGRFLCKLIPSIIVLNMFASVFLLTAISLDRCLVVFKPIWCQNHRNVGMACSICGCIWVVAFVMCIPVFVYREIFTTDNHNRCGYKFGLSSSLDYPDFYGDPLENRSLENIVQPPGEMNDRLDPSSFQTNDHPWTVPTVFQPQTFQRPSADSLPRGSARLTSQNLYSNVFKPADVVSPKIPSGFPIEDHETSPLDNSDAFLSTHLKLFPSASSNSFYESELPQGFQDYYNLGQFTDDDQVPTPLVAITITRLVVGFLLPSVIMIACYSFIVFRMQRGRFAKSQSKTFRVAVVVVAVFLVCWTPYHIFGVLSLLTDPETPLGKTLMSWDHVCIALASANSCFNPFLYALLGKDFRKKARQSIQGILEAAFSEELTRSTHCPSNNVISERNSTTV
Method: In the following evaluation, Compound 1 and Compound 2 were dissolved in DMSO and diluted with HBSS as appropriate.
Human Embryonic Kidney cells 293 (HEK293) were used, transfected with the expression vectors necessary for evaluation according to the following.
A transfection solution was prepared by sequentially adding C3a receptor expression vector, GNA16 expression vector, and PEI-MAX (PolyScience) solution to serum-free DMEM medium, mixing well, and then allowing it to stand at room temperature for 20 minutes. […]
The cells for evaluating C3a receptor response described above were seeded in a 96-well Black Polystyrene Microplate (Thermo fisher scientific) precoated with Poly-L-Ornithine Solution (FUJIFILM Wako Pure Chemical). […] After 15 minutes, a mouse TLQP-21 solution was added for C3a receptor stimulation, and the Ca^2+ influx associated with the stimulation was measured over time as intracellular fluorescence intensity (Ex: 494 nm, Em: 525 nm). The value obtained by subtracting the measured value when HBSS was added instead of mouse TLQP-21 solution (blank) was used as the measured value. The C3a receptor antagonist solution and mouse TLQP-21 solution were added after adjusting their concentrations by appropriately diluting them so that their final concentrations when measuring fluorescence intensity were 10 nM and 1 μM, respectively. […]

[2] = system: AD model mice (NC/Nga, mite allergen-induced); assay: Scratching behavior in AD model mice given C3a receptor antagonist; type: in vivo, mouse; details: 200 μL subcutaneous, Compound 1 0.5 mg/mL, Compound 2 0.05 mg/mL, three times a week; measured for 3 hours after last administration; vs solvent alone; FIG. 7
Method: Seven-week-old female NC/Nga mice were used.
Preparation of AD model mice: The back of the neck was shaved, and 100 mg of an ointment containing mite allergen: Biostir AD (Biostir Inc.) was applied to the back of the neck and auricular region under isoflurane anesthesia for initial sensitization. Four days after the first application of the ointment containing mite allergen, 150 μL of 4% (w/v) SDS solution and 100 mg of ointment containing mite allergen were applied to the back of the neck and auricular region under isoflurane anesthesia. Thereafter, the same procedure was performed four times at a frequency of once every 3 to 4 days to induce AD-like dermatitis.
as §1, with “Sample administration started after the first AEW treatment and was performed at a frequency of once daily for 8 days.” left out
Four days after the last application of the ointment containing mite allergen, the scratching behavior was measured for 3 hours after the last administration of the sample. […]

Compound | Scratching behavior [1] | Fluorescence intensity due to C3a receptor stimulation by TLQP-21 (Ca2+ influx, integrated over 3 min) (C3a receptor) | Scratching behavior [2]
N=C(N)NCCC[C@H](NC(=O)c1ccc(C(c2ccccc2)c2ccccc2)s1)C(=O)O [Compound 1, L-arginine, N2-[[5-(diphenylmethyl)-2-thienyl]carbonyl]] | significant decrease | greatly suppressed | significant decrease
Cc1cc(C(c2ccc(Cl)cc2)c2ccc(Cl)cc2)sc1C(=O)N[C@@H](CCCNC(=N)N)C(=O)O [Compound 2, L-arginine, N2-[[5-[bis(4-chlorophenyl)methyl]-3-methyl-2-thienyl]carbonyl]] | significant decrease | greatly suppressed | significant decrease
